# In paper PMC7558399, “In Vitro Selective Growth-Inhibitory Activities of Phytochemicals, Synthetic Phytochemical Analogs, and Antibiotics against Diarrheagenic/Probiotic Bacteria and Cancer/Normal Intestinal Cells” (Pharmaceuticals, 2020):
# Where two headings read alike, the source gives them in different places.
# Assays:
# Assay type in all cases: cell-based
# [1] = tested on: Bacillus cereus (ATCC 14579); experiment: Broth microdilution MIC, B. cereus
# [2] = tested on: Clostridium difficile (DSMZ 12056); experiment: microbe, parasite or virus in culture; conditions: Clostridioides difficile, DSMZ12056
# [3] = tested on: Clostridium perfringens (DSMZ 11778); experiment: microbe, parasite or virus in culture; conditions: DSMZ11778
# [4] = tested on: Enterococcus faecalis (ATCC 29212); experiment: Broth microdilution MIC, E. faecalis
# [5] = tested on: Escherichia coli (ATCC 25922); experiment: Broth microdilution MIC, E. coli
# [6] = tested on: E. coli 0175:H7 (NCTC 12900); experiment: microbe, parasite or virus in culture; conditions: Escherichia coli, NCTC12900
# [7] = tested on: Listeria monocytogenes (ATCC 7644); experiment: Broth microdilution MIC, L. monocytogenes
# [8] = tested on: Shigella flexneri (ATCC 12022); experiment: microbe, parasite or virus in culture; conditions: ATCC12022
# [9] = tested on: Salmonella enterica ssp. enterica serovar Enteritidis (ATCC 13076); experiment: Broth microdilution MIC, Salmonella Enteritidis
# [10] = tested on: S. enterica ssp. enterica serovar Typhimurium (ATCC 14028); experiment: Broth microdilution MIC, Salmonella Typhimurium
# [11] = tested on: Vibrio parahaemolyticus (ATCC 17802); experiment: Broth microdilution MIC, V. parahaemolyticus
# [12] = tested on: Yersinia enterocolitica (ATCC 9610); experiment: Broth microdilution MIC, Y. enterocolitica
# [13] = tested on: diarrheagenic bacteria (12 strains); experiment: organism not typed
# [14] = tested on: Bacteroides fragilis (ATCC 25285); experiment: Broth microdilution MIC, B. fragilis; conditions: ATCC25285
# [15] = tested on: Bifidobacterium adolescentis (DSMZ 20087); experiment: Broth microdilution MIC, B. adolescentis
# [16] = tested on: Bifidobacterium animalis spp. lactis (DSMZ 10140); experiment: Broth microdilution MIC, B. animalis spp. lactis; conditions: DSMZ10140
# [17] = tested on: Bifidobacterium bifidum (ATCC 29521); experiment: Broth microdilution MIC, B. bifidum
# [18] = tested on: Bifidobacterium breve (ATCC 15700); experiment: Broth microdilution MIC, B. breve
# [19] = tested on: Bifidobacterium longum ssp. longum (DSMZ 20219); experiment: Broth microdilution MIC, B. longum ssp. longum; conditions: DSMZ20219
# [20] = tested on: Lactobacillus casei (DSMZ 20011); experiment: Broth microdilution MIC, L. casei; conditions: Lacticaseibacillus casei, DSMZ20011
# [21] = tested on: Lactobacillus reuteri (CCM 3625); experiment: Broth microdilution MIC, L. reuteri; conditions: Limosilactobacillus reuteri, CCM3625
# [22] = tested on: Lactobacillus rhamnosus (CCM 7091); experiment: Broth microdilution MIC, L. rhamnosus; conditions: Lacticaseibacillus rhamnosus, CCM7091
# [23] = tested on: probiotic bacteria (9 strains); experiment: Broth microdilution MIC, probiotic bacteria as a group (mean or range over strains)
# [24] = tested on: HT29 (ATCC HTB 38) intestinal cancer cells; experiment: MTT cytotoxicity assay, HT29; conditions: Homo sapiens; for IC50: read-out: IC50 ± SD; for IC80: read-out: IC80 ± SD (80% inhibitory concentration of proliferation)
# [25] = tested on: Caco-2 (ATCC HTB 37) intestinal cancer cells; experiment: MTT cytotoxicity assay, Caco-2; conditions: Homo sapiens; for IC50: read-out: IC50 ± SD; for IC80: read-out: IC80 ± SD (80% inhibitory concentration of proliferation)
# [26] = tested on: intestinal cancer cells (HT29 and Caco-2); experiment: MTT cytotoxicity assay, mean for intestinal cancer cells; conditions: for IC50: read-out: x¯ -CC ± SD: mean IC50 for intestinal cancer cells; for IC80: read-out: x¯ -CC ± SD: mean IC80 for intestinal cancer cells
# [27] = tested on: FHs 74 Int (ATCC CCL 241) intestinal normal cells; experiment: MTT cytotoxicity assay, FHs 74 Int; conditions: 72 h; for IC50 / IC80: FHs74Int; for IC50: read-out: IC50 ± SD; for IC80: read-out: IC80 ± SD (80% inhibitory concentration of proliferation)
# [28] = FHs 74 Int (intestinal normal cells), MTT
smiles,measurement,setting,value
"CO/N=C(\C(=O)N[C@@H]1C(=O)N2C(C(=O)O)=C(CSc3nc(=O)c(=O)[nH]n3C)CS[C@H]12)c1csc(N)n1 [CF, ceftriaxone sodium]",MIC,"[1]; ATCC14579, […], median/mode, read-out: MIC",128 µg/mL
same,MIC,"[2]; Clostridium difficile, […], read-out: MIC",64 µg/mL
same,MIC,[3],4 µg/mL
same,MIC,"[4]; ATCC29212, growth inhibited by ≥80%, read-out: MIC",512 µg/mL
same,MIC,"[5]; ATCC25922, growth inhibited by ≥80%, read-out: MIC",0.062 µg/mL
same,MIC,[6],0.5 µg/mL
same,MIC,"[7]; ATCC7644, growth inhibited by ≥80%, read-out: MIC",32 µg/mL
same,MIC,[8],0.5 µg/mL
same,MIC,"[9]; Salmonella Enteritidis, growth inhibited by ≥80%, read-out: MIC",0.25 µg/mL
same,MIC,"[10]; Salmonella Typhimurium, growth inhibited by ≥80%, read-out: MIC",0.25 µg/mL
same,MIC,"[11]; ATCC17802, growth inhibited by ≥80%, read-out: MIC",0.125 µg/mL
same,MIC,"[12]; ATCC9610, growth inhibited by ≥80%, read-out: MIC",0.25 µg/mL
same,MIC,"[13]; all gram-negative diarrheagenic bacteria, range over strains, read-out: MICs",0.062 to 0.5 µg/mL
same,MIC,"[13]; gram-positive pathogens, range over strains, read-out: MICs",4 to 512 µg/mL
same,MIC,"[13]; mean of 12 strains, >512 replaced with 1024, read-out: x¯ -DB ± SD: mean MIC for diarrheagenic bacteria",61.8 ± 141 µg/mL
same,MIC,[14],128 µg/mL
same,MIC,"[15]; DSMZ20087, growth inhibited by ≥80%, read-out: MIC",1 µg/mL
same,MIC,"[16]; Bifidobacterium animalis spp. lactis, growth inhibited by ≥80%, read-out: MIC",2 µg/mL
same,MIC,"[17]; ATCC29521, growth inhibited by ≥80%, read-out: MIC",4 µg/mL
same,MIC,"[18]; ATCC15700, growth inhibited by ≥80%, read-out: MIC",32 µg/mL
same,MIC,"[19]; Bifidobacterium longum ssp. longum, growth inhibited by ≥80%, read-out: MIC",8 µg/mL
same,MIC,"[20]; Lactobacillus casei, growth inhibited by ≥80%, read-out: MIC",32 µg/mL
same,MIC,"[21]; Lactobacillus reuteri, growth inhibited by ≥80%, read-out: MIC",0.5 µg/mL
same,MIC,"[22]; Lactobacillus rhamnosus, growth inhibited by ≥80%, read-out: MIC",32 µg/mL
same,MIC,"[23]; Bifidobacterium breve and Bifidobacterium longum ssp. longum, read-out: MICs",8 to 32 µg/mL
same,MIC,"[23]; lactobacilli, range over strains, read-out: MICs",0.5 to 32 µg/mL
same,MIC,"[23]; mean of 9 strains, >512 replaced with 1024, read-out: x¯ -PB ± SD: mean MIC for probiotic bacteria",26.6 ± 38 µg/mL
same,MIC,"[23]; remaining bifidobacteria (other than B. breve and B. longum ssp. longum), read-out: MICs",1 to 4 µg/mL
same,IC50,"[24]; HT-29, HT29, MTT, 72 h",> 512 µg/mL
same,IC80,"[24]; HT-29, HT29, MTT, 72 h",> 512 µg/mL
same,IC50,"[25]; Caco-2, MTT, 72 h",> 512 µg/mL
same,IC80,"[25]; Caco-2, MTT, 72 h",> 512 µg/mL
same,IC50,"[26]; mean of HT29 and Caco-2, >512 replaced with 1024",> 512 µg/mL
same,IC80,[26],> 512 µg/mL
same,IC50 ± SD,[27]; [28],"- (Not active (MIC/IC50/80 > 512 μg/mL, the value 1024 μg/mL was used for average calculation))"
same,IC80 ± SD (80% inhibitory concentration of proliferation),[27]; [28],"- (Not active (MIC/IC50/80 > 512 μg/mL, the value 1024 μg/mL was used for average calculation))"
same,IC50,[27]; [28],> 512 µg/mL
same,IC80,[27]; [28],> 512 µg/mL
"Oc1cccc2cccnc12 [8HQ, 8-hydroxyquinoline]",MIC,[1]; ATCC14579,512 µg/mL
same,MIC,[2],128 µg/mL
same,MIC,[3],128 µg/mL
same,MIC,[4]; ATCC29212,4 µg/mL
same,MIC,[5]; ATCC25922,128 µg/mL
same,MIC,[6],256 µg/mL
same,MIC,[7]; ATCC7644,1 µg/mL
same,MIC,[8],128 µg/mL
same,MIC,[9],256 µg/mL
same,MIC,[10],512 µg/mL
same,MIC,[11]; ATCC17802,128 µg/mL
same,MIC,[12]; ATCC9610,512 µg/mL
same,MIC,[13]; read-out: x¯ -DB ± SD: mean MIC for diarrheagenic bacteria,224 ± 181 µg/mL
same,MIC,[14],32 µg/mL
same,MIC,[15]; DSMZ20087,512 µg/mL
same,MIC,[16]; Bifidobacterium animalis,> 512 µg/mL
same,MIC,[17]; ATCC29521,512 µg/mL
same,MIC,[18]; ATCC15700,> 512 µg/mL
same,MIC,[19]; Bifidobacterium longum,512 µg/mL
same,MIC,[20],> 512 µg/mL
same,MIC,[21],> 512 µg/mL
same,MIC,[22],> 512 µg/mL
same,MIC,[23]; read-out: x¯ -PB ± SD: mean MIC for probiotic bacteria,743 ± 343 µg/mL
same,IC50,"[24]; HT-29, 72 h",1.3 ± 0.3 µg/mL
same,IC80,"[24]; HT-29, 72 h",4.8 ± 2.8 µg/mL
same,IC50,"[25]; Caco-2, 72 h",0.3 ± 0.1 µg/mL
same,IC80,"[25]; Caco-2, 72 h",0.9 ± 0.1 µg/mL
same,IC50,[26],0.8 ± 0.5 µg/mL
same,IC80,[26],2.9 ± 2 µg/mL
same,IC50,[27],10.7 ± 0.2 µg/mL
same,IC80,[27],20.3 ± 2.4 µg/mL
